# From US8288389B2, “Piperazine derivative having affinity for the histamine H3 receptor” (Glaxo Group Limited, priority 2007, dated 2012)
# Structures can show the parent of a compound that is named as a salt.
# Legend:
# histamine H3 receptor = biological target: T1, histamine H3 receptor (Rattus norvegicus, UniProt Q9QYN8); conditions: following oral administration to the rat; cited from earlier work
# T1 construct: from tissue; host or cells: rat cerebral cortex, crude homogenate
# rats = conditions: certain oral doses; passive avoidance, water maze, object recognition, attentional set shift; cited from earlier work
# H3 receptor = H3 receptor (Sus scrofa, UniProt A0A287B9V8); assay: Pig-PET study with [11C]GSK189254: pig brain H3 receptor occupancy over time and kon-koff limited model; conditions: 50 micrograms/kg i.v.; for koff: iv
# Sequence of H3 receptor (A0A287B9V8 1-448): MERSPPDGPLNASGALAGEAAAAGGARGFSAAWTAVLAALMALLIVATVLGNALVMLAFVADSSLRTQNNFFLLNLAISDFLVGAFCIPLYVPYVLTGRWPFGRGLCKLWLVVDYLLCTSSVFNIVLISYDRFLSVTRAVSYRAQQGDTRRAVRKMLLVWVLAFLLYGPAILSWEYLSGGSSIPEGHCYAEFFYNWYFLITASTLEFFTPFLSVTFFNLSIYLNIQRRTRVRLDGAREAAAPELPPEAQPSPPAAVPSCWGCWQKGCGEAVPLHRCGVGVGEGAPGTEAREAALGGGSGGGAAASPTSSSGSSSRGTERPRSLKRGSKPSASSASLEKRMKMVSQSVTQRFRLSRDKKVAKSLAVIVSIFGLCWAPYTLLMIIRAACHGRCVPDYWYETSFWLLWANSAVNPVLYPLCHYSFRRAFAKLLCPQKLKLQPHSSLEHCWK
# [1] = Plasma clearance in the pig-PET study; type: in vivo, Yorkshire-Landrace pig; conditions: 50 micrograms/kg i.v.
# rodent models = conditions: five choice task, object recognition, elevated plus maze, acquisition of novel task, passive avoidance; cited from earlier work
# male Sprague Dawley rats = assay: Toxicity Study 1: 7-day oral repeat-dose study in male Sprague Dawley rats; type: in vivo, rat; conditions: for tolerability: male rats
# Method: Three male rats were added at each non-zero dose level for toxicokinetic evaluation. All doses and concentrations, including analyte concentration in plasma, are expressed in terms of the parent “free base” compound.
# The following endpoints/parameters were evaluated for toxicology animals: clinical observations, body weights, food consumption measurements, selected haematology and selected clinical chemistry results, liver weights, selected macroscopic and microscopic observations, and selected hepatic gene expression analysis. Toxicokinetic evaluation (serial profiling) was performed on samples collected from satellite animals on Days 1 and 7. For male rats dosed at 30 or 100 mg/kg/day, histopathology observations carried out were on kidneys, mesentery and mandibular lymph node only. For male rats dosed at 0 mg/kg/day (control) and 300 mg/kg/day, histopathology observations carried out were on adrenals, brain, heart, kidneys, liver, lung, mandibular lymph node, mesentery, stomach, testes, and thymus (except that mandibular lymph node observations were for 0 mg/kg/day dosed rats only).
# Sprague Dawley rats = assay: Toxicity Study 2: 7-day oral dose range-finding study in Sprague Dawley rats; type: in vivo, rat
# Method: Three male rats and three female rats were added at 600 mg/kg/day and 3 female rats were added at 300 mg/kg/day for toxicokinetic evaluation.
# The following endpoints/parameters were evaluated for toxicology animals: clinical observations, body weights, food consumption, selected haematology, selected clinical chemistry, liver weights, and selected macroscopic and microscopic observations. Toxicokinetic evaluation was performed on samples collected on Day 1 (300 and 600 mg/kg/day dosing) and Day 7 (300 mg/kg/day dosing only).
# [2] = Preliminary HCl-salt-formation and crystallisation experiments (relative stability of crystal forms); type: physicochemical; conditions: compared with crystalline Form 1
# Text: Crystalline Form 1 (or a predominance of crystalline Form 1) is often formed initially depending on the conditions, but, depending on the conditions (such as the type of solvent and the solubility of crystalline Form 1 in it, and/or the temperature and/or temperature time course, and/or the contact time of the crystalline Form 1 with the solvent), the crystalline Form 1 can then often convert to crystalline Form 2 to a greater or lesser extent when in contact with a suitable solvent i.e. a solvent suitable for converting crystalline Form 1 to crystalline Form 2.
# [3] = average model: derived from average plasma data and average occupancy
# T1 sequence (Q9QYN8 whole entry): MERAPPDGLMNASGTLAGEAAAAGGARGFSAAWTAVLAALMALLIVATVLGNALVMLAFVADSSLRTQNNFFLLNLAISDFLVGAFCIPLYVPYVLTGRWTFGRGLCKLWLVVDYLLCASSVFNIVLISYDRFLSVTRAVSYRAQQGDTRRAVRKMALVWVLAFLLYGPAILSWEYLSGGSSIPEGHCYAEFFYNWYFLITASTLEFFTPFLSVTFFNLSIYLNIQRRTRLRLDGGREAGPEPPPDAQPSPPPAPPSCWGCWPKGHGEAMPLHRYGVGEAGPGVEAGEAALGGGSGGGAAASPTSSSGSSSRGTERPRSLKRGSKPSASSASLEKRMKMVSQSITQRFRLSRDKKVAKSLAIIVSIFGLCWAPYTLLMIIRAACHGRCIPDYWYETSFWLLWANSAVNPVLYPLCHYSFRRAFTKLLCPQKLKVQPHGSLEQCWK
compound,measurement,setting,value
CNC(=O)c1ccc(Oc2ccc3c(c2)CCN(C2CCC2)CC3)nc1 [GSK189254],[3]R-α-methylhistamine ex vivo binding in the rat cortex,histamine H3 receptor,inhibited
same,performance of rats in cognition paradigms,rats,improved performance
"CC(C)N1CCCN(C(=O)c2ccc(OC3CCOCC3)cc2)CC1 [salt B, reference compound]",Kd (koff/kon),H3 receptor; [3],1.80 ng/mL
same,Plasma clearance,[1]; average model: derived from average plasma data,2.9 L/h
CC(C)(C)CCC#C[C@@H]1C[C@H]1c1c[nH]cn1 [GT-2331],effect in rodent cognition models,rodent models,cognitive enhancing properties
CC(C)N1CCN(C(=O)c2ccc(OC3CCOCC3)cc2)CC1.Cl [Example E1],tolerability,male Sprague Dawley rats; 300 mg/kg/day oral for 7 days (measured as the free base),moderately well tolerated
same,tolerability,male Sprague Dawley rats; 30 or 100 mg/kg/day oral for 7 days (measured as the free base),well tolerated
same,food consumption,"male Sprague Dawley rats; rat, in vivo, po, 300 mg/kg/day",ca. 0.80 ×pretreatment
same,koff,"H3 receptor; PIG1, pig, pig 1 (individual study), estimated model parameter",6.33e-05 s⁻¹
same,Kd (koff/kon),H3 receptor; [3],3.37 ng/mL
same,Kd (koff/kon),"H3 receptor; mean of the individually estimated parameters, n=3 pigs",3.35 ng/mL
same,"reduction in pig brain H3 receptor occupancy over time, as compared to salt B","H3 receptor; n=3 pigs, preliminary measurements",generally faster reduction in pig brain H3 receptor occupancy
same,koff,"H3 receptor; pig, average model: derived from average plasma data and average occupancy",0.000152 s⁻¹
same,koff,"H3 receptor; pig, mean of the individually estimated parameters, n=3 pigs",0.000243 s⁻¹
same,koff,"H3 receptor; pig, pig 2 (individual study), estimated model parameter",0.00019 s⁻¹
same,koff,"H3 receptor; pig, pig 3 (individual study), estimated model parameter",0.000477 s⁻¹
same,Plasma clearance,[1]; pig 1 (individual study),2.9 L/h
same,tolerability,"Sprague Dawley rats; female rats, 300 mg/kg/day oral for 7 days (measured as the free base)",moderately well tolerated
same,tolerability (preliminary conclusion from Toxicity Studies 1 and 2),"Sprague Dawley rats; male and female rats, 7 days oral repeat dosing at doses of up to 300 mg/kg/day",well tolerated or moderately well tolerated
S=C(NC1CCCCC1)N1CCC(c2cnc[nH]2)CC1 [thioperamide],effect in rodent cognition models,rodent models,cognitive enhancing properties
CC(C)N1CCN(C(=O)c2ccc(OC3CCOCC3)cc2)CC1 [Example 3],thermodynamic stability of the crystal form,[2],more thermodynamically stable than crystalline Form 1
NC(=NCc1ccc(Cl)cc1)SCCCc1cnc[nH]1 [clobenpropit],effect in rodent cognition models,rodent models,cognitive enhancing properties
O=C(c1ccc(OCCCc2cnc[nH]2)cc1)C1CC1 [ciproxifan],effect in rodent cognition models,rodent models,cognitive enhancing properties
